What was measured:
Type in all cases: binding, human
PELI1/2 = assay: Biotinylated peptide pull-down from HeLa nuclear extracts, Western blot for PELI1/2; settings: biotinylated peptide on streptavidin beads, 4 h at 4°C, SDS–PAGE and Western blot
Experimental: (§1) Streptavidin-coupled Dynabeads MyOne Streptavidin T1 (Invitrogen) were washed four times with PBS pH 7.4. To conjugate the Dynabeads with biotinylated peptides (21st Century Biochemicals, Inc.), 30 μl of beads were incubated with 0.2 μmol of each peptide with end-over-end rotation for 90 min at RT. Conjugated Dynabeads were then washed once with PBS and 3 × 2 min with 0.1% BSA in PBS. HeLa nuclear extracts (Ipracell) were diluted 1:1 in 2X Dilution buffer (100 mM NaCl, 10 mM NaF, 0.2 mM EDTA, 0.4% Igepal CA-630, 20 mM HEPES-KOH pH 7.4) supplemented with complete protease inhibitor cocktail (Roche), and cleared by centrifugation at 16,000g for 15 min at 4°C. Purified GST-PELI2-FHA recombinant protein was also diluted in 2X Dilution buffer containing protease inhibitors. MDC1-[p]TQXF peptide-conjugated Dynabeads were incubated either with clarified HeLa nuclear extracts for 4 h or with purified GST-PELI2-FHA for 5 h. H2AX-[p]S139 peptide-conjugated Dynabeads were incubated with clarified HeLa nuclear extracts for 4 h. In all the cases, incubation was performed with end-over-end rotation at 4°C. Beads were washed three times with Peptide pull-down buffer (50 mM NaCl, 50 mM KCl, 5 mM NaF, 0.1 mM EDTA, 0.2% Igepal CA-630, 10% glycerol, 20 mM HEPES-KOH pH 7.4) supplemented with complete protease inhibitor cocktail (Roche). Then, they were either resuspended in Peptide pull-down buffer and brought to the Functional Genomics Center of the University of Zurich (FGCZ) for further mass spectrometry, or elution was carried out in 2X SDS sample buffer (100 mM DTT, PLD001; Geneaid) for SDS–PAGE. […]
(§2) Adjusted volume (intensity) of Western blot bands was calculated with Image Lab (Bio-Rad, Image Lab Software Version 6.1, Bio-Rad Laboratories, Inc.) for every biotinylated p-peptide from the MDC1-[p]TQXF peptide pull-down from HeLa nuclear extracts, as a way of analyzing the binding affinity of either RNF8 or PELI1/2 for each pTQXF cluster. […]

MDC1 = assay: Biotinylated H2AX-pS139 peptide pull-down from HeLa nuclear extracts, Western blot for MDC1; settings: biotinylated peptide on streptavidin beads, 4 h at 4°C
Experimental: as §1, with “(Roche).” for “(Roche). Then, they were either resuspended in Peptide pull-down buffer and brought to the Functional Genomics Center of the University of Zurich (FGCZ) for further mass spectrometry, or elution was carried out in 2X SDS sample buffer (100 mM DTT, PLD001; Geneaid) for SDS–PAGE.”

RNF8 = assay: Biotinylated peptide pull-down from HeLa nuclear extracts, Western blot for RNF8; settings: biotinylated peptide on streptavidin beads, 4 h at 4°C, SDS–PAGE and Western blot
Experimental: as §1, with “h.” for “h. In all the cases, incubation was performed with end-over-end rotation at 4°C. Beads were washed three times with Peptide pull-down buffer (50 mM NaCl, 50 mM KCl, 5 mM NaF, 0.1 mM EDTA, 0.2% Igepal CA-630, 10% glycerol, 20 mM HEPES-KOH pH 7.4) supplemented with complete protease inhibitor cocktail (Roche). Then, they were either resuspended in Peptide pull-down buffer and brought to the Functional Genomics Center of the University of Zurich (FGCZ) for further mass spectrometry, or elution was carried out in 2X SDS sample buffer (100 mM DTT, PLD001; Geneaid) for SDS–PAGE.”
as §2

GST-PELI2-FHA = assay: Biotinylated peptide pull-down of purified recombinant GST-PELI2-FHA; settings: biotinylated peptide on streptavidin beads, 5 h at 4°C, SDS–PAGE, protein stain
Experimental: For recombinant human PELI2-FHA expression in bacteria and further purification, the GST-tagged PELI2-FHA construct was transformed into E. coli BL21(DE3)pLysS Competent Cells (Promega). 100 μl of the transformation mixture were used to inoculate a 500 ml flask containing 100 ml of Luria–Bertani broth (LB) supplemented with carbenicillin (100 μg/ml) and chloramphenicol (34 μg/ml), and inoculated culture was incubated overnight at 27°C without shaking. On the next day, the overnight culture was grown at 37°C in an orbital shaking incubator until the optical density at 600 nm reached 0.6–0.8, moment when culture was removed from the incubator and rapidly cooled on ice to 25°C. Recombinant protein expression was induced by the addition of 0.4 mM isopropyl β-D-1-thiogalactopyranoside (IPTG) and incubation of the culture for a further 4 h at 25°C shaking at 220 rpm was performed. Cells were then harvested by centrifugation, and the resulting pellet was stored at −80°C until required. […] Protein concentration was measured after every purification step. […]

Row | Substance | PELI1/2 pulled down by the peptide (in words) (PELI1/2) | MDC1 pulled down by the peptide (in words) (MDC1) | RNF8 pulled down by the peptide (in words) (RNF8) | purified GST-PELI2-FHA pulled down by the peptide (in words) (GST-PELI2-FHA)
1 | Biotin-SGS-CLRESEDSE[p]TQPFDT-NH2 [biotinylated pT765, synthetic biotinylated MDC1 TQXF phosphopeptide for pull-downs] | more PELI1/2 than RNF8 |  |  | 
2 | Biotin-SGS-TVGPKAPSGGKKATQA[p]SQEY-OH [biotinylated H2AX-pS139, biotinylated γH2AX phosphopeptide for pull-downs] |  | efficiently pulled down |  | 
3 | Biotin-SGS-LDEPWEVLA[p]TQPFCL-NH2 [biotinylated pT752, synthetic biotinylated peptide, human MDC1 residues 743–757, phospho-threonine at T752] |  |  | large quantities | specifically pulled down
4 | Biotin-SGS-AVQSMEDEP[p]TQAFML-NH2 [biotinylated pT719, synthetic biotinylated MDC1 TQXF phosphopeptide for pull-downs] | specifically pulled down |  |  | specifically pulled down
5 | Biotin-SGS-DSEDLDLQA[p]TQCFLE-NH2 [biotinylated pT699, synthetic biotinylated MDC1 TQXF phosphopeptide for pull-downs] | highest quantities |  | highest quantities | 
